In US4965280A, “Antifungal carbinols” (E. I. Du Pont de Nemours and Company, priority 1989, dated 1990):

How the values were obtained:
G4646 CORN = assay: Test D Corn and Sorghum Herbicide Test; assay type: in vivo, Zea mays
GREEN FOXTAIL = assay: Test D; assay type: in vivo, Setaria viridis
GIANT FOXTAIL = assay: Test D; assay type: in vivo, Setaria faberii
FALL PANICUM = assay: Test D; assay type: in vivo, Panicum dichotomiflorum
BARNYARDGRASS = assay: Test D; assay type: in vivo, Echinochloa crus-galli
Description: (§1) The Corn and Sorghum Herbicide Test included the following species in both the preemergence and postemergence evaluations:
(§2) Postemergence plantings were grown in Sassafras sandy loam soil. Corn and soybeans were grown in separate 25 cm diameter containers. Sorghum and the seven grass weed species were grown in two 18 cm diameter containers, 4 species per container. The seven broadleaf weed species were also grown in two 18 cm diameter containers, 4 species in one container, 3 species in the second container. One additional planting of corn in an 18 cm diameter container was made. The soil surface of this additional container of corn was covered with the absorbent, perlite, before spray treatment so that test chemicals would enter the plant only via the foliage. The plants were grown 10-21 days, dependent upon the species and then sprayed postemergence with the test chemicals dissolved in a nonpytotoxic solvent.
(§3) Preemergence plantings were grown in fertilized Tama silt loam soil. These plantings are identical to those described in the postemergence section, with the exception of the corn planting having perlite covering the soil surface. These plantings were made the day of or the day before spraying the test chemicals dissolved in a nonphytotoxic solvent.
(§4) Treated plants and controls were maintained in the greenhouse for 2 to 4 weeks. Visual planting response ratings were made on a percentage scale of 0 to 100 in comparison with a control where 0=no injury, and 100=death.

G522 SORGHUM = assay: Test D; assay type: in vivo, Sorghum bicolor
PURPLE NUTSEDGE = assay: Test D; assay type: in vivo, Cyperus rotundus
VELVETLEAF = assay: Test D; assay type: in vivo, Abutilon theophrasti
Description: as §1, §2, §3, §4

COCKLEBUR = assay: Test D; assay type: in vivo, Xanthium pensylvanicum
LAMBSQUARTER = assay: Test D; assay type: in vivo, Chenopodium album
REDROOT PIGWEED = assay: Test E; assay type: in vivo, Amaranthus retroflexus
PERSN SPEEDWELL = assay: Test E; assay type: in vivo, Veronica persica
WILD BUCKWHEAT = assay: Test E; assay type: in vivo, Polygonum convolvulus
WILD RADISH = assay: Test E; assay type: in vivo, Raphanus raphanistrum

C=C(c1ccccc1Cl)C(O)(Cn1cncn1)c1ccc(Cl)cc1Cl (centres unmarked) [Example 33, 2-(2,4-Dichlorophenyl)-3-(2-chlorophenyl)-1-(1H-1,2,4-triazol-1-yl)-3-buten-2-ol]
plant response (G4646 CORN; POSTEMERGENCE 0250 GM/HA): 0% | plant response (G4646 CORN; POSTEMERGENCE 0500 GM/HA): 0% | plant response (G4646 CORN; POSTEMERGENCE 1000 GM/HA): 0% | plant response (G4646 CORN; PREEMERGENCE 0250 GM/HA): 0% | plant response (G4646 CORN; PREEMERGENCE 0500 GM/HA): 0% | plant response (G4646 CORN; PREEMERGENCE 1000 GM/HA): 0% | plant response (GREEN FOXTAIL; POSTEMERGENCE 0250 GM/HA): 0% | plant response (GREEN FOXTAIL; POSTEMERGENCE 0500 GM/HA): 0% | plant response (GREEN FOXTAIL; POSTEMERGENCE 1000 GM/HA): 0% | plant response (GREEN FOXTAIL; PREEMERGENCE 0250 GM/HA): 0% | plant response (GREEN FOXTAIL; PREEMERGENCE 0500 GM/HA): 0% | plant response (GREEN FOXTAIL; PREEMERGENCE 1000 GM/HA): 0% | plant response (GIANT FOXTAIL; POSTEMERGENCE 0250 GM/HA): 0% | plant response (GIANT FOXTAIL; POSTEMERGENCE 0500 GM/HA): 0% | plant response (GIANT FOXTAIL; POSTEMERGENCE 1000 GM/HA): 0% | plant response (GIANT FOXTAIL; PREEMERGENCE 0250 GM/HA): 0% | plant response (GIANT FOXTAIL; PREEMERGENCE 0500 GM/HA): 0% | plant response (GIANT FOXTAIL; PREEMERGENCE 1000 GM/HA): 0% | plant response (FALL PANICUM; POSTEMERGENCE 0250 GM/HA): 0% | plant response (FALL PANICUM; POSTEMERGENCE 0500 GM/HA): 0% | plant response (FALL PANICUM; POSTEMERGENCE 1000 GM/HA): 0% | plant response (FALL PANICUM; PREEMERGENCE 0250 GM/HA): 0% | plant response (FALL PANICUM; PREEMERGENCE 0500 GM/HA): 0% | plant response (FALL PANICUM; PREEMERGENCE 1000 GM/HA): 0% | plant response (BARNYARDGRASS; POSTEMERGENCE 0250 GM/HA): 0% | plant response (BARNYARDGRASS; POSTEMERGENCE 0500 GM/HA): 0% | plant response (BARNYARDGRASS; POSTEMERGENCE 1000 GM/HA): 0% | plant response (BARNYARDGRASS; PREEMERGENCE 0250 GM/HA): 0% | plant response (BARNYARDGRASS; PREEMERGENCE 0500 GM/HA): 0% | plant response (BARNYARDGRASS; PREEMERGENCE 1000 GM/HA): 0% | plant response (G522 SORGHUM; POSTEMERGENCE 0250 GM/HA): 0% | plant response (G522 SORGHUM; POSTEMERGENCE 0500 GM/HA): 0% | plant response (G522 SORGHUM; POSTEMERGENCE 1000 GM/HA): 0% | plant response (G522 SORGHUM; PREEMERGENCE 0250 GM/HA): 0% | plant response (G522 SORGHUM; PREEMERGENCE 0500 GM/HA): 0% | plant response (G522 SORGHUM; PREEMERGENCE 1000 GM/HA): 0% | plant response (PURPLE NUTSEDGE; POSTEMERGENCE 0250 GM/HA): 0% | plant response (PURPLE NUTSEDGE; POSTEMERGENCE 0500 GM/HA): 0% | plant response (PURPLE NUTSEDGE; POSTEMERGENCE 1000 GM/HA): 0% | plant response (PURPLE NUTSEDGE; PREEMERGENCE 0250 GM/HA): 0% | plant response (PURPLE NUTSEDGE; PREEMERGENCE 0500 GM/HA): 0% | plant response (PURPLE NUTSEDGE; PREEMERGENCE 1000 GM/HA): 0% | plant response (VELVETLEAF; POSTEMERGENCE 0250 GM/HA): 0% | plant response (VELVETLEAF; POSTEMERGENCE 0500 GM/HA): 0% | plant response (VELVETLEAF; POSTEMERGENCE 1000 GM/HA): 0% | plant response (VELVETLEAF; PREEMERGENCE 0250 GM/HA): 0% | plant response (VELVETLEAF; PREEMERGENCE 0500 GM/HA): 0% | plant response (VELVETLEAF; PREEMERGENCE 1000 GM/HA): 0% | plant response (COCKLEBUR; POSTEMERGENCE 0250 GM/HA): 0% | plant response (COCKLEBUR; POSTEMERGENCE 0500 GM/HA): 0% | plant response (COCKLEBUR; POSTEMERGENCE 1000 GM/HA): 0% | plant response (COCKLEBUR; PREEMERGENCE 0250 GM/HA): 0% | plant response (COCKLEBUR; PREEMERGENCE 0500 GM/HA): 0% | plant response (COCKLEBUR; PREEMERGENCE 1000 GM/HA): 0% | plant response (LAMBSQUARTER; POSTEMERGENCE 0250 GM/HA): 0% | plant response (LAMBSQUARTER; POSTEMERGENCE 0500 GM/HA): 0% | plant response (LAMBSQUARTER; POSTEMERGENCE 1000 GM/HA): 0% | plant response (LAMBSQUARTER; PREEMERGENCE 0250 GM/HA): 0% | plant response (LAMBSQUARTER; PREEMERGENCE 0500 GM/HA): 0% | plant response (LAMBSQUARTER; PREEMERGENCE 1000 GM/HA): 0%

C=C(c1ccccc1)C(O)(Cn1cncn1)c1ccc(F)cc1F (centres unmarked) [Example 52, 2-(2,4-Difluorophenyl)-3-phenyl-1-(1H-1,2,4-triazol-1-yl)-3-buten-2-ol]
plant response (REDROOT PIGWEED; POSTEMERGENCE 0064 GM/HA): 0% | plant response (REDROOT PIGWEED; POSTEMERGENCE 0125 GM/HA): 50% | plant response (REDROOT PIGWEED; POSTEMERGENCE 0250 GM/HA): 90% | plant response (REDROOT PIGWEED; POSTEMERGENCE 0500 GM/HA): 90% | plant response (REDROOT PIGWEED; PREEMERGENCE 0250 GM/HA): 100% | plant response (PERSN SPEEDWELL; POSTEMERGENCE 0064 GM/HA): 40% | plant response (PERSN SPEEDWELL; POSTEMERGENCE 0125 GM/HA): 30% | plant response (PERSN SPEEDWELL; POSTEMERGENCE 0250 GM/HA): 60% | plant response (PERSN SPEEDWELL; POSTEMERGENCE 0500 GM/HA): 90% | plant response (PERSN SPEEDWELL; PREEMERGENCE 0250 GM/HA): 100% | plant response (WILD BUCKWHEAT; POSTEMERGENCE 0064 GM/HA): 0% | plant response (WILD BUCKWHEAT; POSTEMERGENCE 0125 GM/HA): 0% | plant response (WILD BUCKWHEAT; POSTEMERGENCE 0250 GM/HA): 0% | plant response (WILD BUCKWHEAT; POSTEMERGENCE 0500 GM/HA): 30% | plant response (WILD BUCKWHEAT; PREEMERGENCE 0250 GM/HA): 20% | plant response (WILD RADISH; POSTEMERGENCE 0064 GM/HA): 10% | plant response (WILD RADISH; POSTEMERGENCE 0125 GM/HA): 10% | plant response (WILD RADISH; POSTEMERGENCE 0250 GM/HA): 50% | plant response (WILD RADISH; POSTEMERGENCE 0500 GM/HA): 80% | plant response (WILD RADISH; PREEMERGENCE 0250 GM/HA): 50%
